Our source for the Normal boiling temperature values is the NIST ThermoML archive (doi:10.1021/je101151f).

For this data set the following is noted: Liquid; Manometric method.

± gives the expanded uncertainty stated by the source.

On to `Cc1ccc(C(C)C)cc1` [1-(1-methylethyl)-4-methylbenzene], for which the Normal boiling temperature turned out to be 176.24 ± 0.31 °C. The same measure for `C=C(C)[C@@H]1CC=C(C)CC1` [(S)-1-methyl-4-(1-methylethenyl)cyclohexene]: 177.19 ± 0.36 °C. The same measure for `C=C1CCC2CC1C2(C)C` (stereo not drawn) [β-pinene]: 165.80 ± 0.31 °C.
